Reference: patent US10722514B2 (FLX Bio, Inc., priority 2017, dated 2020)
Counter-ions that a name gives are not always drawn.

biological target: T1, recombinant full-length USP7 (Homo sapiens, UniProt Q93009); assay: USP7-mediated ubiquitin-rhodamine cleavage assay; type: biochemical; conditions: recombinant full-length USP7 62 pM; ubiquitin-rhodamine 100 nM; 30-minute incubation with compound, 1 hour reaction at room temperature; read-out: Potency: USP7 IC50
T1 construct: A 25 μl reaction volume containing recombinant full-length USP7 (62 pM)
Procedure, shortened: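 Enzyme 62 pM; HEPES pH 7.3/150 mM NaCl/1 mM TCEP/125 μg/ml BSA; 1% DMSO; 30 min cpd preinc RT; Ub-rhodamine 100 nM, 1 h RT, dark; acetic acid stop; fluorescence; IC50 4-param fit.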

T1 sequence (Q93009 whole entry): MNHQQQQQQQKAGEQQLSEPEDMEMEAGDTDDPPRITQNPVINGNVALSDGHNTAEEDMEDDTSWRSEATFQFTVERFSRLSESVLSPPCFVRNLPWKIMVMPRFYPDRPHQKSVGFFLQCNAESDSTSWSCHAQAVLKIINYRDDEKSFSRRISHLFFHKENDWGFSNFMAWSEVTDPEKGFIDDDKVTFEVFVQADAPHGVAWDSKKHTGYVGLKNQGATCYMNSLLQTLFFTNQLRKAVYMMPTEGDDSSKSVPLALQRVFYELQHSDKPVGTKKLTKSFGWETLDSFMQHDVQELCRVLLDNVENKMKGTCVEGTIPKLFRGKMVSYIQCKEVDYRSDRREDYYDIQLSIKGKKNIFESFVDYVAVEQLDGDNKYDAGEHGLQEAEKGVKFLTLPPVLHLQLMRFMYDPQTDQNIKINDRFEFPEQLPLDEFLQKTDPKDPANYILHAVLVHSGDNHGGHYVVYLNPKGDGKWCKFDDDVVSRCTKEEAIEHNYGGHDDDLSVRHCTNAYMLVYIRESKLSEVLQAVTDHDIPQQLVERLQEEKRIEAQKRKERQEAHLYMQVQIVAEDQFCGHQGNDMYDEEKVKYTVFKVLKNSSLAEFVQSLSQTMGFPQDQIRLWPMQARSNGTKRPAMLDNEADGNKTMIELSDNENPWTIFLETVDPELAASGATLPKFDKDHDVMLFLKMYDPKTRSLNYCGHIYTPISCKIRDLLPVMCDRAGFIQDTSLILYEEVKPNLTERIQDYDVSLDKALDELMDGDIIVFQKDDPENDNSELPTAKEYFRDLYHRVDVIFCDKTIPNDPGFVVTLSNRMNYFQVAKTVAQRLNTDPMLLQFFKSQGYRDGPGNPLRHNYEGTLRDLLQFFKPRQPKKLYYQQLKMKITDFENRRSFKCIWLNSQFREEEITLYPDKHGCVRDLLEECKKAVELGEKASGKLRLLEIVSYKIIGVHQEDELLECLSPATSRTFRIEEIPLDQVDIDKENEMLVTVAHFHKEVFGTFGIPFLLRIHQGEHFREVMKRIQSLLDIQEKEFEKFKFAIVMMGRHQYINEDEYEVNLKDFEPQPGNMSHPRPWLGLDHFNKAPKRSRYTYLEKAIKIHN

SMILES	IC50 [nM]
Cc1cc(C(F)(F)F)cc(-c2ccnc3cc(CN4C(=O)CCC4=O)sc23)c1O[C@H]1CCCNC1 [Example 254, (S)-1-((7-(3-Methyl-2-(piperidin-3-yloxy)-5-(trifluoromethyl)phenyl)thieno[3,2-b]pyridin-2-yl)methyl)pyrrolidine-2,5-dione]	< 1000
Cc1cc(Cl)cc(-c2ccnc3cc(CO)sc23)c1OC1CCNCC1 [Example 175, (7-(5-Chloro-3-methyl-2-(piperidin-4-yloxy)phenyl)thieno[3,2-b]pyridin-2-yl)methanol]	1000 to 10000
Cc1cc(Cl)cc(-c2ncnc3cc(CN4C(=O)C5C(C4=O)C5(C)C)sc23)c1OC1CNCC1(C)F (stereo not drawn) [Example 386, 3-[[4-[5-chloro-2-(4-fluoro-4-methyl-pyrrolidin-3-yl)oxy-3-methyl-phenyl]thieno[3,2-d]pyrimidin-6-yl]methyl]-6,6-dimethyl-3-azabicyclo[3.1.0]hexane-2,4-dione dihydrochloride]	< 1000
Cc1cc(C#N)cc(-c2ncnc3cc(CN4C(=O)CCC4=O)sc23)c1O[C@@H]1CNC[C@@H]1F [Example 109, 3-(6-((2,5-Dioxopyrrolidin-1-yl)methyl)thieno[3,2-d]pyrimidin-4-yl)-4-(((3R,4S)-4-fluoropyrrolidin-3-yl)oxy)-5-methylbenzonitrile]	< 1000
CN[C@H]1CC[C@@H](Oc2c(C)cc(Cl)cc2-c2ccnc3cc(CO)sc23)CC1 [Example 247, (7-(5-Chloro-3-methyl-2-(((l s,4s)-4-(methylamino)cyclohexyl)oxy)phenyl)thieno[3,2-b]pyridin-2-yl)methanol]	10000 to 30000
Cc1cc(Cl)cc(-c2ccnc3cc(CN4C(=O)C5C(C4=O)C5(C)C)sc23)c1OC1CCNC1(C)C (stereo not drawn) [Example 368, 3-[[7-[5-chloro-2-(2,2-dimethylpyrrolidin-3-yl)oxy-3-methyl-phenyl]thieno[3,2-b]pyridin-2-yl]methyl]-6,6-dimethyl-3-azabicyclo[3.1.0]hexane-2,4-dione]	< 1000
Cc1cc(Cl)cc(-c2ccnc3cc(CN4C(=O)CCC4=O)sc23)c1O[C@@H]1CN(C(C)C)C[C@@H]1F [Example 323, 1-[[7-[5-chloro-2-[(3R,4S)-4-fluoro-1-isopropyl-pyrrolidin-3-yl]oxy-3-methyl-phenyl]thieno[3,2-b]pyridin-2-yl]methyl]pyrrolidine-2,5-dione]	< 1000
Cc1cc(Cl)cc(-c2ccnc3cc(CN4C(=O)C5CC5C4=O)sc23)c1O[C@@H]1CCNC[C@@H]1C (stereo partly drawn) [Example 324, 3-[[7-[5-chloro-3-methyl-2-[[(3S,4R)-3-methyl-4-piperidyl]oxy]phenyl]thieno[3,2-b]pyridin-2-yl]methyl]-3-azabicyclo[3.1.0]hexane-2,4-dione]	< 1000
Cc1cc(Cl)cc(-c2ccnc3cc(CO)sc23)c1O[C@@H]1CCCC[C@@H]1N [Example 196, (7-(2-(((1R,2S)-2-Aminocyclohexyl)oxy)-5-chloro-3-methylphenyl)thieno[3,2-b]pyridin-2-yl)methanol]	> 30000

Second part, the compound after the results:

IC50 [nM]	SMILES
< 1000	Cc1cc(Cl)cc(-c2ccnc3cc(Cn4c(=O)ccn(C)c4=O)sc23)c1OC1CCNCC1 [Example 195, 3-((7-(5-Chloro-3-methyl-2-(piperidin-4-yloxy)phenyl)thieno[3,2-b]pyridin-2-yl)methyl)-1-methylpyrimidine-2,4(1H,3H)-dione]
< 1000	Cc1cc(Cl)cc(-c2ccnc3cc(CN4C(=O)CCC4=O)sc23)c1O[C@@H]1CN[C@H](CO)C1 [Example 116, 1-((7-(5-Chloro-2-(((3S,5S)-5-(hydroxymethyl)pyrrolidin-3-yl)oxy)-3-methylphenyl)thieno[3,2-b]pyridin-2-yl)methyl)pyrrolidine-2,5-dione]
< 1000	Cc1cc(Cl)cc(-c2ccnc3cc(Cn4c(=O)ccn(C)c4=O)sc23)c1O[C@H]1CCCNC1 [Example 161, (S)-3-((7-(5-Chloro-3-methyl-2-(piperidin-3-yloxy)phenyl)thieno[3,2-b]pyridin-2-yl)methyl)-1-methylpyrimidine-2,4(1H,3H)-dione]
1000 to 10000	Cc1cc(Cl)cc(-c2ccnc3cc(CN4C(=O)CN(C)C4=O)sc23)c1OC1CCNCC1 [Example 224, 3-((7-(5-Chloro-3-methyl-2-(piperidin-4-yloxy)phenyl)thieno[3,2-b]pyridin-2-yl)methyl)-1-methylimidazolidine-2,4-dione]

same assay, conditions: recombinant full-length USP7 62 pM; ubiquitin-rhodamine 100 nM; 30-minute incubation, 1 hour reaction at room temperature; read-out: Potency (USP7 IC50)

IC50 [nM]	SMILES
1000 to 10000	Cc1cc(Cl)cc(-c2ccnc3cc(Cn4c(=O)ccn(CC(F)(F)F)c4=O)sc23)c1OC(C)C [Example 702, 3-[[7-(5-chloro-2-isopropoxy-3-methyl-phenyl)thieno[3,2-b]pyridin-2-yl]methyl]-1-(2,2,2-trifluoroethyl)pyrimidine-2,4-dione]

same assay, conditions: recombinant full-length USP7 62 pM; ubiquitin-rhodamine 100 nM; 30-minute pre-incubation, 1 hour reaction at room temperature; read-out: Potency (USP7 IC50)

SMILES	IC50 [nM]
Cc1cc(Cl)cc(-c2ccnc3cc(CN4C(=O)CCC4=O)sc23)c1OC1CC(N)C1 (stereo not drawn) [Example 438, 1-[[7-[2-(3-aminocyclobutoxy)-5-chloro-3-methyl-phenyl]thieno[3,2-b]pyridin-2-yl]methyl]pyrrolidine-2,5-dione; 2,2,2-trifluoroacetic acid]	< 1000
Cc1cc(Cl)cc(-c2ccnc3cc(Cn4c(=O)ccn(C)c4=O)sc23)c1O[C@H]1CC[C@H](N)C1 [Example 522, 3-[[7-[2-[(1S,3S)-3-aminocylcopentoxy]-5-chloro-3-methyl-phenyl]thieno[3,2-b]pyridin-2-yl]methyl]-1-methyl-pyrimidine-2,4-dione; 2,2,2-trifluoroacetic acid]	< 1000

The next lines start with the values.

IC50 [nM]	SMILES
< 1000	COC[C@@H]1C[C@H](Oc2c(C)cc(Cl)cc2-c2ccnc3cc(Cn4c(=O)ccn(CC(F)(F)F)c4=O)sc23)CN1 [Example 647, 3-[[7-[5-chloro-2-[(3S,5S)-5-(methoxymethyl)pyrrolidin-3-yl]oxy-3-methyl-phenyl]thieno[3,2-b]pyridin-2-yl]methyl]-1-(2,2,2-trifluoroethyl)pyrimidine-2,4-dione]
< 1000	Cc1cc(Cl)cc(-c2ccnc3cc(Cn4c(=O)ccn(CC(F)(F)F)c4=O)sc23)c1O[C@@H]1CN[C@H](C(C)(C)O)C1 [Example 634, 3-[[7-[5-chlloro-2-[(3S,5S)-5-(1-hydroxy-1-methyl-ethyl)pyrrolidin-3-yl]oxy-3-methyl-phenyl]thieno[3,2-b]pyridin-2-yl]methyl]-1-(2,2,2-trifluoroethyl)pyrimidine-2,4-dione]
< 1000	Cc1cc(Cl)cc(-c2ccnc3cc(Cn4c(=O)ccn(C)c4=O)sc23)c1OC1CCCNCC1F (stereo not drawn) [Example 471, 3-[[7-[5-chloro-2-(3-fluoroazepan-4-yl)oxy-3-methyl-phenyl]thieno[3,2-b]pyridin-2-yl]methyl]-1-methyl-pyrimidine-2,4-dione]
< 1000	Cc1cc(Cl)cc(-c2ccnc3cc(Cn4c(=O)ccn(CC(F)(F)F)c4=O)sc23)c1O[C@H]1CC[C@H](C)NC1 [Example 598, 3-[[7-[5-chloro-3-methyl-2-[[(3S,6S)-6-methyl-3-piperidyl]oxy]phenyl]thieno[3,2-b]pyridin-2-yl]methyl]-1-(2,2,2-trifluoroethyl)pyrimidine-2,4-dione; 2,2,2-trifluoroacetic acid]
< 1000	CCN1CC2CC(Oc3c(C)cc(Cl)cc3-c3ccnc4cc(Cn5c(=O)ccn(C)c5=O)sc34)C1C2 (stereo not drawn) [Example 466, 3-[[7-[5-chloro-2-[(3-ethyl-3-azabicyclo[2.2.1]heptan-5-yl)oxy]-3-methyl-phenyl]thieno[3,2-b]pyridin-2-yl]methyl]-1-methyl-pyrimidine-2,4-dione]
